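Grown in 96-well plates, cells were treated for 48 hours with each compound at five concentrations. Insufficient inhibition: endpoint recorded as highest concentration tested. TGI marks complete inhibition of growth.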
Legend:
Test in all cases: growth of human tumour cells (NCI), 48 h
[1] = test system: HCT-15 colon
[2] = test system: PC-3 prostate
[3] = test system: SK-MEL-28 melanoma
[4] = test system: HCC-2998 colon
[5] = test system: KM12 colon
[6] = test system: HL-60(TB) leukemia
[7] = test system: OVCAR-8 ovarian
[8] = test system: SW-620 colon
[9] = test system: SF-539 CNS
[10] = test system: ACHN renal
[11] = test system: MDA-MB-231 breast
[12] = test system: MDA-N
[13] = test system: CCRF-CEM leukemia
[14] = test system: SN12C renal
[15] = test system: IGROV1 ovarian
[16] = test system: OVCAR-5 ovarian
[17] = test system: UACC-257 melanoma
[18] = test system: 786-0 renal
[19] = test system: SF-295 CNS
[20] = test system: M14 melanoma
[21] = test system: MALME-3M melanoma
[22] = test system: EKVX NSCLC
[23] = test system: U251 CNS
[24] = test system: DU-145 prostate
[25] = test system: RPMI-8226 leukemia
[26] = test system: NCI-H522 lung
[27] = test system: NCI/ADR-RES ovarian
[28] = test system: RXF 393 renal
[29] = test system: COLO 205 colon
[30] = test system: OVCAR-3 ovarian
[31] = test system: NCI-H23 lung
[32] = test system: SNB-75 CNS
[33] = test system: SNB-19 CNS
[34] = test system: UO-31 renal
[35] = test system: HOP-62 NSCLC
[36] = test system: T-47D breast
[37] = test system: UACC-62 melanoma
[38] = test system: A549 NSCLC
[39] = test system: MCF7 breast
[40] = test system: SK-OV-3 ovarian
[41] = test system: NCI-H226 lung
[42] = test system: SK-MEL-5 melanoma
[43] = test system: HCT-116 colon
[44] = test system: K-562 leukemia
[45] = test system: HT29 colon
[46] = test system: LOX IMVI melanoma
[47] = test system: MOLT-4 leukemia
[48] = test system: SF-268 CNS
[49] = test system: TK-10 renal
[50] = test system: CAKI-1 renal
[51] = test system: SR leukemia

CCOC(CCCN1CCC2(CC1)C(=O)N(C)CN2c1ccccc1)(OCC)c1ccc(F)cc1
TGI [1]: 22.7 µM
TGI [2]: 29.6 µM
TGI [3]: 30.5 µM
TGI [4]: 21.3 µM
TGI [5]: 29.5 µM
TGI [6]: 30.6 µM
TGI [7]: 33.6 µM
TGI [8]: 28.7 µM
TGI [9]: 13.7 µM
TGI [10]: 28.6 µM
TGI [11]: 29.3 µM
TGI [12]: 24.5 µM
TGI [13]: 18.7 µM
TGI [14]: 21.9 µM
TGI [15]: 31.2 µM
TGI [16]: 21.6 µM
TGI [17]: 18.5 µM
TGI [18]: 27.7 µM
TGI [19]: 25.3 µM
TGI [20]: 23.9 µM
TGI [21]: 31.2 µM
TGI [22]: 9.81 µM
TGI [23]: 26.3 µM
TGI [24]: 46.5 µM
TGI [25]: 29.9 µM
TGI [26]: 34.2 µM
TGI [27]: 33.5 µM
TGI [28]: 34.6 µM
TGI [29]: 6.88 µM
TGI [30]: 26.8 µM
TGI [31]: 39.5 µM
TGI [32]: 43.8 µM
TGI [33]: 22.6 µM
TGI [34]: 19.8 µM
TGI [35]: 14.7 µM
TGI [36]: 29.8 µM
TGI [37]: 34.3 µM
TGI [38]: 23.9 µM
TGI [39]: 13.8 µM
TGI [40]: 46.8 µM
TGI [41]: 33.6 µM
TGI [42]: 14.9 µM
TGI [43]: 14.2 µM
TGI [44]: 33 µM
TGI [45]: 14 µM
TGI [46]: 31 µM
TGI [47]: 22.6 µM
TGI [48]: 29.7 µM
TGI [49]: 22.2 µM
TGI [50]: 49.2 µM

CC1OC(c2ccccc2)=CC(OCc2ccccc2)[C@H]1OCc1ccccc1 (stereo partly drawn)
TGI [1]: > 10 µM
TGI [2]: > 10 µM
TGI [3]: > 10 µM
TGI [4]: > 10 µM
TGI [5]: > 10 µM
TGI [7]: > 10 µM
TGI [8]: > 10 µM
TGI [11]: > 10 µM
TGI [12]: > 10 µM
TGI [13]: > 10 µM
TGI [14]: > 10 µM
TGI [15]: > 10 µM
TGI [18]: > 10 µM
TGI [19]: > 10 µM
TGI [20]: > 10 µM
TGI [21]: > 10 µM
TGI [22]: > 10 µM
TGI [25]: > 10 µM
TGI [28]: > 10 µM
TGI [51]: > 10 µM
TGI [31]: > 10 µM
TGI [32]: > 10 µM
TGI [35]: > 10 µM
TGI [36]: > 10 µM
TGI [37]: > 10 µM
TGI [38]: > 10 µM
TGI [39]: > 10 µM
TGI [40]: > 10 µM
TGI [42]: > 10 µM
TGI [47]: > 10 µM
TGI [48]: > 10 µM
TGI [49]: > 10 µM
TGI [50]: > 10 µM

From PubChem BioAssay (NCI)
